Experimental data taken from US20100112042A1, “Processes and Compositions for Liposomal and Efficient Delivery of Gene Silencing Therapeutics” (MDRNA, INC., priority 2008, published 2010).
Where no end group is shown, it is not given here.

What was measured:
[1] = system: Cyclophilin B (PPIB); experiment: In vitro assay for PPIB gene expression knockdown in A549 cells; assay type: cell-based, human; conditions: for Knockdown (%) (vs dsRNA control): A549 cells, dsRNA DC4377 100 nM; for Knockdown (%) vs control / Knockdown (%) vs untransf: dsRNA DX4221 100 nM
Method: Cyclophilin B (PPIB) gene knockdown measurements can be used as a primary activity-based in vitro assay for interfering RNA delivery formulations. Typically, the measurements were made as described below, with minor variations.
Cyclophilin B (PPIB) gene expression knockdown was measured in A549 human alveolar basal epithelial cells. For PPIB gene knockdown measurements, A549 cells were transfected with an interfering RNA formulation, total RNA prepared 24 hours after transfection, and PPIB mRNA assayed by RT-PCR. QRT-PCR of 36B4 (acidic ribosomal phosphoprotein PO) mRNA expression was performed for normalization.
A549 cells were seeded at 7,500 cells/well (96-well) and incubated overnight in medium. Confluency was about 50% at the time of transfection. Transfection complex was prepared by adding an interfering RNA to medium (OptiMEM™) and vortexing, separately adding a delivery formulation to medium (OptiMEM™) and vortexing, and finally mixing the interfering RNA in medium with the delivery formulation in medium and incubating 20 minutes at room temperature to make the transfection complex. The medium for incubated cells was replaced with fresh OptiMEM™ and transfection complex was added to each well. Cells were incubated for 5 hrs at 37° C. and 5% CO2, then complete medium was added (to a final fetal bovine serum concentration 10%) and incubation continued until 24 hours post-transfection.
For PPIB gene knockdown cells were lysed and RNA prepared (Invisorb RNA Cell HTS 96-Kit/C, Invitek, Berlin, or RNeasy 96 Kit, Qiagen). Quantitative RT-PCR was performed using One-Step qRT-PCR kit (Invitrogen) on a DNA Engine Opticon2 thermal cycler (BioRad).
Primers used for PPIB were: […]

[2] = system: dsRNA; experiment: SYBR-GOLD Dye Binding Assay (peptide binding to RNAi-inducing agent); conditions: FIG. 6; dsRNA 10 μg/ml, 10 mM hepes/5% dextrose pH 7.4
Method: The relative strength of the binding of a cationic peptide to an RNAi-inducing agent was measured with a dye binding assay.
The RNAi-inducing agent was prepared at 7.8 μl in 10 ml to make a 20 μg/ml stock, then 75 μl/well. A SYBR gold dilution was prepared at 3.75 μl in 15 ml for 1:4000 dilution for a 2.5× stock.
Peptides were dissolved in Hepes buffer with 5% dextrose and diluted. Peptides were further diluted so that 75 μl could be added to each well resulting in the desired N:P (ranging from 0-4). Peptides were assumed to have a purity of 50%, but actual peptide amount was unknown.
A SYBR-GOLD Dye Binding Assay was performed. A 96-well plate assay with sample volume of 150 μl per well. Final dsRNA concentration was 10 μg/ml in 10 mM hepes/5% dextrose at pH 7.4. Peptides were diluted into different working solutions such that equal volumes were added to reach different N/P ratios. For the addition procedure, dsRNA was first added (75 μl of 20 μg/ml), followed by […] of 2.5×SYBR Gold. Peptide ([…]) was then added to compete off the SYBR dye. Total volume was […]. Fluorescence was corrected from background of dye alone in buffer. SYBR-Gold ex/em was 495 nm/537 nm, read on Molecular Devices plate reader.

[3] = endosomolytic agent PN3033, binary N/P 5, final N/P 2.5
[4] = endosomolytic agent none, binary N/P 5
[5] = endosomolytic agent PN3033, binary N/P 4, final N/P 2.5
[6] = endosomolytic agent PN3033, binary N/P 4, final N/P 3.5
[7] = endosomolytic agent PN3033, binary N/P 5, final N/P 3.5
[8] = endosomolytic agent PN3033, binary N/P 5, final N/P 4.5

Row | binding to dsRNA (ability to displace SYBR-Gold dye) [2] | Sequence | Knockdown (%) (vs dsRNA control) [1, 3] | Knockdown (%) (vs dsRNA control) ([1]; endosomolytic agent PN3033, binary N/P 10, final N/P 5) | Knockdown (%) (vs dsRNA control) [1, 4] | Knockdown (%) vs control [1, 5] | Knockdown (%) vs untransf [1, 5] | Knockdown (%) vs control [1, 6] | Knockdown (%) vs untransf [1, 6] | Knockdown (%) vs control [1, 3] | Knockdown (%) vs untransf [1, 3] | Knockdown (%) vs control [1, 7] | Knockdown (%) vs untransf [1, 7] | Knockdown (%) vs control [1, 8] | Knockdown (%) vs untransf [1, 8] | Knockdown (%) vs control [1, 4] | Knockdown (%) vs untransf [1, 4]
1 | – | WWHHKKRRCCRRKKHHWW [PN4110, triggered release peptide] | 65% | 63% | 0% | 50% | 55% | 41% | 36% | 72% | 70% | 74% | 72% | 36% | 40% | 14% | 11%
2 | strongest binding | RRRRRCCRRRRR (cysteine pairing not given here; also: dimer) [PN3499, dimer peptide containing a total of 10 arginines] | – | – | – | – | – | – | – | – | – | – | – | – | – | – | –
